For one assay, the system named is PBMC. As to the kind of experiment: Cytotoxicity against human PBMC after 72 hrs by alamar blue assay. The format is cell-based. (The colour change of resazurin is a common sign of viable cells or microbes.)
For a further assay, the system named is Trypanosoma cruzi. The experiment in a line: Antitrypanosomal activity against Trypanosoma cruzi Y blood stream trypomastigotes after 24 hrs. Format: functional, organism-based.

Drawing on ChEMBL document CHEMBL1158544, “The evaluation of quinonoid compounds against Trypanosoma cruzi: synthesis of imidazolic anthraquinones, nor-beta-lapachone derivatives and beta-lapachone-based 1,2,3-triazoles” (Bioorg Med Chem, 2010), this text covers IC50 for 25 molecules.

Some results are limits rather than exact numbers.

As to `O=C1c2ccccc2C(=O)c2c1ccc1nc(-c3ccccc3)[nH]c21`, the IC50 (commonly the point on the concentration scale where inhibition reaches its midpoint) is 12 µM in the assay with PBMC and greater than 2000 µM in the assay with Trypanosoma cruzi.
Regarding `CC(C)=CCC1=C(O)C(=O)c2ccccc2C1=O` [LAPACHOL], in the assay with PBMC, 2.1 µM corresponded to half-maximal inhibition (IC50).
On to `CC1(C)OC2=C(C(=O)C(=O)c3ccccc32)C1Nc1ccc(Cl)c(Cl)c1` (configuration not stated), for which the IC50 in the assay with PBMC turned out to be 2.1 µM; with Trypanosoma cruzi, 43.8 µM.
For the molecule `CC1(C)OC2=C(C(=O)C(=O)c3ccccc32)C1Nc1ccc(Br)cc1Br` (configuration not stated), the IC50 is 2.1 µM in the assay with PBMC and 24.9 µM with Trypanosoma cruzi.
On the same counts, the results for `Cc1ccc(-c2nc3ccc4c(c3[nH]2)C(=O)c2ccccc2C4=O)cc1` are 12 µM and greater than 4000 µM.
The matching figures for `O=C1c2ccccc2C(=O)c2c1ccc1nc(-c3ccc(-c4ccccc4)cc3)[nH]c21`: 12 µM and greater than 4000 µM.
Molecule `CC(C)=CC1=C(O)C(=O)c2ccccc2C1=O` registered an IC50 with PBMC of 2.1 µM.
`CC1(C)CCC2=C(O1)c1ccccc1C(=O)C2=O` [LAPACHONE]: the IC50 was determined as 2.1 µM in the assay with PBMC and 392 µM in the assay on Trypanosoma cruzi.
In turn, `CC1(C)OC2=C(C(=O)C(=O)c3ccccc32)C1Nc1ccc(F)c([N+](=O)[O-])c1` (configuration not stated) showed an IC50 in the assay on Trypanosoma cruzi of 526 µM.
Regarding `Cc1cc([N+](=O)[O-])ccc1NC1C2=C(OC1(C)C)c1ccccc1C(=O)C2=O` (configuration not stated), the IC50 in the assay with PBMC was 2.1 µM; with Trypanosoma cruzi it was 156 µM.
The matching figures for `CC1(C)OC2=C(C(=O)C(=O)c3ccccc32)[C@H](n2cc(-c3ccc(F)cc3)nn2)[C@H]1Br`: 2.1 µM and 220 µM.
On the same counts, the results for `CC1(C)OC2=C(C(=O)c3ccccc3C2=O)[C@@H](N=[N+]=[N-])[C@@H]1Br` are 2.1 µM and 248 µM.
In the case of `CC1(C)OC2=C(C(=O)C(=O)c3ccccc32)[C@H](N=[N+]=[N-])[C@H]1Br`, the IC50 in the assay on PBMC was 2.1 µM; in the assay with Trypanosoma cruzi it was 23.4 µM.
The matching figures for `CC(C)OC1C2=C(OC1(C)C)c1ccccc1C(=O)C2=O` (configuration not stated): 2.1 µM and 268 µM.
On the same counts, the results for `CC1(C)CC2=C(O1)c1ccccc1C(=O)C2=O` [NOR-BETA-LAPACHONE] are 2.1 µM and greater than 4800 µM.
The matching figures for `CC1(C)OC2=C(C(=O)C(=O)c3ccccc32)[C@H](n2cc(-c3ccc(Br)cc3)nn2)[C@H]1Br`: 2.1 µM and 440 µM.
Take `O=C1c2ccccc2C(=O)c2c1ccc1nc(-c3cccc4ccccc34)[nH]c21`: the figures for the IC50 with PBMC and in the assay on Trypanosoma cruzi were 2.1 µM and greater than 4000 µM, respectively.
On the same counts, the results for `CC(C)COC1C2=C(OC1(C)C)c1ccccc1C(=O)C2=O` (configuration not stated) are 2.1 µM and 47.2 µM.
The matching figures for `CC1(C)OC2=C(C(=O)C(=O)c3ccccc32)C1Nc1ccccc1[N+](=O)[O-]` (configuration not stated): 2.1 µM and 55.6 µM.
The matching figures for `COc1ccc(NC2C3=C(OC2(C)C)c2ccccc2C(=O)C3=O)c([N+](=O)[O-])c1` (configuration not stated): 2.1 µM and 59.6 µM.
As to `COc1ccc(-c2cn([C@H]3C4=C(OC(C)(C)[C@@H]3Br)c3ccccc3C(=O)C4=O)nn2)cc1`, the IC50 with PBMC worked out at 2.1 µM; with Trypanosoma cruzi it was 106 µM.
As for `CC1(C)OC2=C(C(=O)C(=O)c3ccccc32)[C@H](n2cc(-c3ccccc3)nn2)[C@H]1Br`, the IC50 with PBMC was 2.1 µM; in the assay on Trypanosoma cruzi it was 313 µM.
Turning to `Cc1ccc([N+](=O)[O-])cc1NC1C2=C(OC1(C)C)c1ccccc1C(=O)C2=O` (configuration not stated), the IC50 in the assay with PBMC amounted to 12 µM; with Trypanosoma cruzi, 284 µM.
Turning to `CC1(C)OC2=C(C(=O)C(=O)c3ccccc32)C1OC1CCCCC1` (configuration not stated), the IC50 amounted to 2.1 µM in the assay on PBMC and 558 µM with Trypanosoma cruzi.
On the same counts, the results for `CC(C)=CCC1=C(OC2(CC=C(C)C)C(=O)C(=O)c3ccccc3C2=O)C(=O)c2ccccc2C1=O` (configuration not stated) are 12 µM and 233 µM.
